In the NIST ThermoML archive (doi:10.1016/j.jct.2013.09.017):

Assay: xn = mol fraction of the nth substance listed
Settings: 101 kPa, Liquid; for viscosity: Capillary tube (Ostwald / Ubbelohde) method; for mass density: Vibrating tube method

CCCCCCCCN(CCCCCCCC)CCCCCCCC [trioctylamine] + CCCCCCC
Settings | mass density, 283.15 K [kg/m3] | mass density, 293.15 K [kg/m3] | mass density, 303.15 K [kg/m3] | viscosity, 283.15 K [mPa·s] | viscosity, 293.15 K [mPa·s] | viscosity, 303.15 K [mPa·s]
x1 = 0.0102 | 696.37 | 688.04 | 679.6 | 0.494 | 0.44 | 0.394
x1 = 0.103 | 726.07 | 718.22 | 710.29 | 0.856 | 0.738 | 0.642
x1 = 0.2636 | 759.83 | 752.47 | 745.07 | 1.827 | 1.51 | 1.269
x1 = 0.3223 | 768.63 | 761.41 | 754.13 | 2.321 | 1.899 | 1.569
x1 = 0.409 | 779.4 | 772.31 | 765.19 | 3.241 | 2.57 | 2.055
x1 = 0.5079 | 789.24 | 782.28 | 775.31 | 4.499 | 3.464 | 2.734
x1 = 0.5997 | 796.55 | 789.72 | 782.85 | 5.814 | 4.377 | 3.374
x1 = 0.7019 | 803.32 | 796.55 | 789.77 | 7.438 | 5.434 | 4.107
x1 = 0.8063 | 808.97 | 802.27 | 795.57 | 9.477 | 6.792 | 5
x1 = 0.906 | 813.43 | 806.79 | 800.15 | 11.64 | 8.231 | 5.972
x1 = 1 | 817.08 | 810.48 | 803.88 | 14.25 | 9.957 | 7.114
